Measured values taken from publication PMC5061434, “Bacterial Expression, Purification and In Vitro Phosphorylation of Full-Length Ribosomal S6 Kinase 2 (RSK2)” (PLoS ONE, 2016).

Columns and labels:
[1] = biological target: T1, Ribosomal S6 kinase 2 (RSK2) (Mus musculus, UniProt P18654); experiment: ADP-Glo kinase assay with S6 peptide at […] ATP; also thermal shift (SYPRO Orange, ~[…]°C); assay type: biochemical
T1 construct: gene Rps6ka3; full-length mouse RSK2 (amino acids 1–740), expressed in E. coli, phosphorylated in vitro by ERK2 and PDK1
T1 sequence (P18654 whole entry, the tested form may be a part): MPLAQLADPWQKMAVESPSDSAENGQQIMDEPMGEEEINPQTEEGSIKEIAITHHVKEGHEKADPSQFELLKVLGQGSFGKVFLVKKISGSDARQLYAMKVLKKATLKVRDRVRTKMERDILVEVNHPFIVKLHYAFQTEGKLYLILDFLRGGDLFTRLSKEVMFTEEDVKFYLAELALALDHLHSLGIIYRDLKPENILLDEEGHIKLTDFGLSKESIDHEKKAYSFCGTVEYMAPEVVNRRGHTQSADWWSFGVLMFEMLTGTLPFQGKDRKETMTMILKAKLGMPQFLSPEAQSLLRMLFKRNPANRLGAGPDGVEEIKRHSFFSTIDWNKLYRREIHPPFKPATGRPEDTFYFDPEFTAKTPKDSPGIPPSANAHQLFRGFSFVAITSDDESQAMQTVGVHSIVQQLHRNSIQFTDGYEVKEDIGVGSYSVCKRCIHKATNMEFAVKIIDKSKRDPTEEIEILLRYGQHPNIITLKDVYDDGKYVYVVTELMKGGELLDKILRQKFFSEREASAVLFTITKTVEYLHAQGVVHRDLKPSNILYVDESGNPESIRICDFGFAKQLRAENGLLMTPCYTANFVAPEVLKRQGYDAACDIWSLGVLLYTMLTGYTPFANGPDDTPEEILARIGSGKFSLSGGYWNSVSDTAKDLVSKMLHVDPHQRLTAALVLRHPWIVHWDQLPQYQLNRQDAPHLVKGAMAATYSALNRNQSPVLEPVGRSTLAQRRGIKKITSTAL

[2] = biological target: full-length murine ribosomal S6 kinase 2 (RSK2) (mouse) (UniProt P18654); experiment: dynamic light scattering; RSK2 at ~0.7 mg/ml, 10°C, 50 mM Tris pH 8.0, 500 mM NaCl, 5 mM 2-mercaptoethanol; dimer of monomers

CC(=O)O[C@@H]1[C@@H](OC(C)=O)[C@@H](O)[C@H](Oc2c(-c3ccc(O)cc3)oc3cc(O)cc(O)c3c2=O)O[C@H]1C [SL0101]
IC50 [1]: ~8 µM

full-length murine ribosomal S6 kinase 2 (RSK2) (from UniProt P18654 1-740) (enzyme)
stoichiometry N [2]: 2
